These results are taken from patent publication US20140100184A1, “SELECTIVE INHIBITORS OF HISTONE […] DOT1L” (BAYLOR COLLEGE OF MEDICINE, priority 2012, published 2014).

Each structure is given as a SMILES string. Where a name gives a salt, the structure may show the parent alone. Read-outs that look alike come from different tables or passages of the source.

Experiment [1] has as its target T1, G9a (Mus musculus, UniProt Q9Z148).
T1 sequence (Q9Z148 1-1263): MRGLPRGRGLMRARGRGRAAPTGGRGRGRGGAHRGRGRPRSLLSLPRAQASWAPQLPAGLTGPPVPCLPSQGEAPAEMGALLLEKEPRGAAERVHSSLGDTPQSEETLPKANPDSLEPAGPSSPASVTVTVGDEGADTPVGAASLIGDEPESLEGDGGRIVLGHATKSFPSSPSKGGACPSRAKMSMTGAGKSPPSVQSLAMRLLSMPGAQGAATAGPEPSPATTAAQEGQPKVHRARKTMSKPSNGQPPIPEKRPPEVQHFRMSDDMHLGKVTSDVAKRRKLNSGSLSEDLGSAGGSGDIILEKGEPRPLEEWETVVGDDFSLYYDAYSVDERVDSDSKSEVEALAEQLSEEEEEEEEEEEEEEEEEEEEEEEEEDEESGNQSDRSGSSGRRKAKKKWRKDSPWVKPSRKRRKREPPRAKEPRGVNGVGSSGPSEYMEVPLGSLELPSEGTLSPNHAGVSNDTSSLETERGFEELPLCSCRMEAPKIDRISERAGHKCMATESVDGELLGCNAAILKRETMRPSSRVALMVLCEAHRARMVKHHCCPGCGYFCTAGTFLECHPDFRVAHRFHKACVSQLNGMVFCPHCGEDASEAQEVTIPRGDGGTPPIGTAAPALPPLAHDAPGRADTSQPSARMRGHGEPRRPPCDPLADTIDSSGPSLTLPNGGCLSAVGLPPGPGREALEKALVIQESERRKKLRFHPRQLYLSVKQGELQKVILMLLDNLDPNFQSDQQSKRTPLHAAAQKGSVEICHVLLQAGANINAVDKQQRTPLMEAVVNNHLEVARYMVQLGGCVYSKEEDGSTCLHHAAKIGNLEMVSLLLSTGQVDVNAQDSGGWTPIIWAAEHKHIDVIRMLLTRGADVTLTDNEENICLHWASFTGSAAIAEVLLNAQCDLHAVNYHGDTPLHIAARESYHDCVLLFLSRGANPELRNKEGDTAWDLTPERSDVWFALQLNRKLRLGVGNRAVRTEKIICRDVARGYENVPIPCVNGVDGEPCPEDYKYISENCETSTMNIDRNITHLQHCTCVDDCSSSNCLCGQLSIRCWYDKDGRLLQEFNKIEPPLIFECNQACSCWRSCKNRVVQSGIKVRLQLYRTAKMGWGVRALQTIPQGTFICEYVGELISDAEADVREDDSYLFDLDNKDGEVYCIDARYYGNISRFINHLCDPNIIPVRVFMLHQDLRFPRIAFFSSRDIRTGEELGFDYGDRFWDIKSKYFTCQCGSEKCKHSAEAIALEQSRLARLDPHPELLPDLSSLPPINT
The experiment is described as follows: Methyltransferase inhibition assay, G9a.

For experiment [2], the target named is T2, SUV39H1 (Homo sapiens, UniProt O43463).
T2 sequence (O43463 1-412): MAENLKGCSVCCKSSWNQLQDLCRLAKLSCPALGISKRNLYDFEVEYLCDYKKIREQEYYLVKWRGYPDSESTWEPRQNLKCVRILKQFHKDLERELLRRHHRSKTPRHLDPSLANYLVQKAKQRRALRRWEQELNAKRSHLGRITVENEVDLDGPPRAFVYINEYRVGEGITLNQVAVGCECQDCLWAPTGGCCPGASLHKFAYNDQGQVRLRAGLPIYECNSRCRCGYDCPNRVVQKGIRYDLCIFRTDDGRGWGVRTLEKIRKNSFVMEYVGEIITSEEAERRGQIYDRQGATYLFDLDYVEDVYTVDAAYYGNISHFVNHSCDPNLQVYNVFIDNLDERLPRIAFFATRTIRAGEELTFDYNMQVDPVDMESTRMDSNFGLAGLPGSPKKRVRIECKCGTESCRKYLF
Briefly: biochemical. Further details: purchased BPS Biosciences (San Diego, Calif.).

Experiment [3] addresses T3, CARM1 (Homo sapiens, UniProt Q86X55).
T3 sequence (Q86X55 1-608): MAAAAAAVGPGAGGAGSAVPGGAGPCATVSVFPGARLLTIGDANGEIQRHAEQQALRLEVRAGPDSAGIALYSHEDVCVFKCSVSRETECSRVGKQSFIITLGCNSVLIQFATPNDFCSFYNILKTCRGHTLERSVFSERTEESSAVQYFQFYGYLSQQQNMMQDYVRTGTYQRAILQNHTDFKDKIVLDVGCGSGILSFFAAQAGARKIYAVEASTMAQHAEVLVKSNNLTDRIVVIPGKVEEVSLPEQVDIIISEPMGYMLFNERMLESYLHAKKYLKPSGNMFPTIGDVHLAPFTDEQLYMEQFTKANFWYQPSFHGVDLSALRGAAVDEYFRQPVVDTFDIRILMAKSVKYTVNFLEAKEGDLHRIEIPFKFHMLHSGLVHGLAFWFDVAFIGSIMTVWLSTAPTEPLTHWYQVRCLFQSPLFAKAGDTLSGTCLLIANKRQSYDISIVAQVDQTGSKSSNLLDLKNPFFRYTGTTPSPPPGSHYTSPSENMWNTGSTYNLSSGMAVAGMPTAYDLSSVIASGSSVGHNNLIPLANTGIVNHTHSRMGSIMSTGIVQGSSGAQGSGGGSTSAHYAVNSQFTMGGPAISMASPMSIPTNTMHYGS
Briefly: biochemical. Details: GST (from pGEX-KG vector) (N); made in house; host or cells: E. coli (as for hDOT1L); plasmid pGEX-KG-CARM1 from Dr. Qin Feng.

The subject of experiment [4] is CARM1, PRMT1, G9a and SUV39H1. Briefly: Inhibition of other methyltransferases, summarised over the panel. The conditions noted are these: for activity against other methyltransferases: in words.
Experiment [5] has as its target T4, PRMT1 (Homo sapiens, UniProt Q99873). Briefly: Methyltransferase inhibition assay, PRMT1. Format: biochemical. Further details: purchased BPS Biosciences (San Diego, Calif.).
Experiment [6] addresses T2, SUV39H1. The following applies: read-out: Km value of SAM for SUV39H1.
Experiment [7] addresses T1, G9a. The following applies: read-out: Km value of SAM for G9a.
Experiment [8] concerns the target T3, CARM1. The conditions noted are these: read-out: Km value of SAM for CARM1.
Experiment [9] deals with T4, PRMT1. The following applies: read-out: Km value of SAM for PRMT1; from the literature; cited from earlier work.
The target in experiment [10] is T5, DOT1L (Homo sapiens, UniProt Q8TEK3).
T5 construct: Human DOT1 L(1-472) was expressed and purified as described in the literature; GST (N, cleaved yes); made in house; host or cells: E. coli BL21-CodonPlus (Agilent), plasmid pGEX-KG-hDOT1L(1-472)
T5 sequence (Q8TEK3 1-472): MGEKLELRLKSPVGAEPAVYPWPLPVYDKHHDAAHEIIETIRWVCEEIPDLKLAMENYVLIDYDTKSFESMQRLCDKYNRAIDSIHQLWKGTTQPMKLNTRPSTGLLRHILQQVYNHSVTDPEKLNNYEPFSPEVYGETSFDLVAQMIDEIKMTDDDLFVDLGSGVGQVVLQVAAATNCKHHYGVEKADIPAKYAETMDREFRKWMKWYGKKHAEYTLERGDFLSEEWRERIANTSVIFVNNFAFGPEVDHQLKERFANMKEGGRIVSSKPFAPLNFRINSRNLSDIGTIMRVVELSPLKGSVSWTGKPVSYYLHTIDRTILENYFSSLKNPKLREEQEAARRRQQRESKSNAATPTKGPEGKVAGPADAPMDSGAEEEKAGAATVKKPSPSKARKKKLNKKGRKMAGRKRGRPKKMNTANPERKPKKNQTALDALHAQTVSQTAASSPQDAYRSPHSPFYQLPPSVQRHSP
The following applies: literature values; read-out: Km value for DOT1L, recent publication; cited from earlier work.

For experiment [11], the target named is T5, DOT1L. Briefly: Determination of Km values of SAM and substrate, DOT1L. Format: biochemical. The conditions noted are these: 30° C., 10 min, pH=8.0.

T4 sequence (Q99873 whole entry): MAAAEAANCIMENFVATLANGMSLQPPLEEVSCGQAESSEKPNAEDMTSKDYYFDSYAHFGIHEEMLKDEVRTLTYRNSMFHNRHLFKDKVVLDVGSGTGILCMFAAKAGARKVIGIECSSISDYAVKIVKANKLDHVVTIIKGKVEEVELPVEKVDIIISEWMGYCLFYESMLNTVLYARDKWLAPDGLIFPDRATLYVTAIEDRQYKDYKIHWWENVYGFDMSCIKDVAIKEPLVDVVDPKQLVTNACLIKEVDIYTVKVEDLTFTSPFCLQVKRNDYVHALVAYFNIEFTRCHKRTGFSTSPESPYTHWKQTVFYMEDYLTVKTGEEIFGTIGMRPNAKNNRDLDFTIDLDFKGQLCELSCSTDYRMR

`CNc1ncnc2c1ncn2[C@@H]1O[C@H](CSCC[C@H](N)C(=O)O)[C@@H](O)[C@H]1O` [Compound 1, S-(N^6-Methyl-adenosyl)-L-homocysteine]: the Ki at G9a [1] was over 100 µM.

On to `N[C@@H](CCSC[C@H]1O[C@@H](n2cnc3c(NCc4ccccc4)ncnc32)[C@H](O)[C@@H]1O)C(=O)O` [Compound 2, S-(N^6-Benzyl-adenosyl)-L-homocysteine], for which the results for the Ki on G9a [1], on SUV39H1 [2] and on CARM1 [3] were over 100 µM, over 100 µM and 18 µM, respectively. The “activity on G9a” value at G9a [1] is “inactive”.

With `Nc1ncnc2c1ncn2[C@@H]1O[C@H](CN(CCI)CC[C@H](N)C(=O)O)C(O)[C@@H]1O` (stereo partly drawn) [Compound 3, N^γ-(5′-Adenosyl)-N^γ-(2-iodoethyl)-(S)-2,4-diaminobutyric acid hydrochloride], the IC50 is over 100 µM against G9a [1], over 100 µM against SUV39H1 [2] and 46.4 µM on CARM1 [3].

Take `Nc1ncnc2c1ncn2[C@@H]1O[C@H](CN(CCI)CCC[C@H](N)C(=O)O)C(O)[C@@H]1O` (stereo partly drawn) [Compound 4, N^δ-(5′-Adenosyl)-N^δ-(2-iodoethyl)-(S)-2,5-diaminopentanoic-acid hydrochloride]: the IC50 in [4] (read-out: IC50 values on other methyltransferases, span over the four enzymes) was at least 1.1 µM; at G9a [1] it was 1.8 µM; on SUV39H1 [2] it was over 100 µM; against CARM1 [3] it was 1.1 µM.

Regarding `CNc1ncnc2c1ncn2[C@@H]1O[C@H](CN(CCI)CCC[C@H](N)C(=O)O)C(O)[C@@H]1O` (stereo partly drawn) [Compound 5, N^δ-[5′-(N^6-Methyl-adenosyl)]-N^δ-(2-iodoethyl)-(S)-2,5-diaminopentanoic acid hydrochloride], in experiment [4], the “activity against other methyltransferases” value was “essentially inactive”. Moreover, the IC50 against G9a [1], at SUV39H1 [2] and at CARM1 [3] was over 100 µM in each case.

As to `N[C@@H](CCCN(CCI)C[C@H]1O[C@@H](n2cnc3c(NCc4ccccc4)ncnc32)[C@@H](O)C1O)C(=O)O` (stereo partly drawn) [Compound 6, N^δ-[5′-(N^6-Benzyl-adenosyl)]-N^δ-(2-iodoethyl)-(S)-2,5-diaminopentanoic acid hydrochloride], the IC50 on PRMT1 [5], on G9a [1], against SUV39H1 [2] and on CARM1 [3] was over 100 µM throughout. In addition, the “activity against other methyltransferases” value in [4] is “essentially inactive”.

Take `Nc1ncnc2c1ncn2[C@@H]1O[C@H](CSCC[C@H](N)C(=O)O)[C@@H](O)[C@H]1O` [SAH, S-(5′-adenosyl)-L-homocysteine, reference compound]: the affinity at G9a [1], expressed as Ki, was 0.57 µM.

`C[S+](CC[C@H](N)C(=O)O)C[C@H]1O[C@@H](n2cnc3c(N)ncnc32)[C@H](O)[C@@H]1O` (stereo partly drawn) [SAM, S-(5′-adenosyl)-L-methionine]: the Km on SUV39H1 [6] was 27.9 µM; on G9a [7] it was 14.1 µM; on CARM1 [8], 1.6 µM; on PRMT1 [9] it was 6 µM; on DOT1L [10], 0.65 µM; on DOT1L [11] it was 0.76 µM.
